Measurements: US12064420B2, “Tie-2 activators targeting the Schlemm's canal” (EyePoint Pharmaceuticals, Inc., priority 2019, dated 2024)

Test system: ocular normotensive human patients with diabetic eye disease
Assay: Phase 2 trial: IOP after subcutaneous Compound 1 alone or with intravitreal ranibizumab, diabetic macular edema
Assay type: in vivo
Procedure: IOP in patients were measured using a double-masked, parallel-group designed to assess the effects of subcutaneous (SC) Compound 1 (sodium salt) alone, or as an adjunct to intravitreal ranibizumab trial. 144 human subjects with diabetic retinopathy complicated by center-involved diabetic macular edema (DME) were randomized to 3 months of one of 3 treatments: 1) Compound 1 (15 mg) SC twice daily (BID) plus sham monthly intravitreal injection (IVT); 2) Compound 1 SC BID plus ranibizumab (0.3 mg) monthly IVT; and 3) Placebo SC BID+ranibizumab IVT. At baseline, mean age was 61.3±1.3 years; 59% of subjects were male; 82.6% had Type 2 diabetes; mean HBA1c was 7.5%±1.3%; mean best corrected visual acuity was 60.2 ETDRS letters (Snellen 20/63); and mean IOP was 15.7 mmHg±3.4. Ophthalmic safety assessments were performed at baseline and monthly during the 3-month treatment period including a single IOP measurement by applanation tonometry in both the study eye and the fellow eye at each time point. By protocol, all patients had baseline IOP<24 mmHg (ocular normotensive).
In the pre-specified safety analysis, change from baseline IOP was analyzed using a t-test (null hypothesis 0 change from baseline). The level of significance was set at 0.05. A post hoc analysis of the subject level IOP measure was the change from baseline in the average over both eyes within a subject for each timepoint. Statistical testing of each timepoint was completed using ANCOVA with baseline IOP (averaged over both eyes within a subject) as covariate. Additionally, statistical testing averaging across all timepoints was completed using a mixed-model repeated measures ANCOVA. The level of significance was set at 0.05.

[1] = average of study eye and fellow eye, week 4
[2] = average of study eye and fellow eye, week 8
[3] = average of study eye and fellow eye, week 12

How did the “Week 4 subject-level IOP change from BL, mean (SD)” value [1] turn out when “ranibizumab [Placebo + ranibizumab, reference compound]” was run?
The value was −0.2 (2.61) mmHg.

What about the “Week 4 subject-level IOP, mean (SD)” value [1] of the same substance?
The value was 15.2 (3.50) mmHg.

What about the “Week 8 subject-level IOP change from BL, mean (SD)” value [2] of the same substance?
The value was 0.2 (2.86) mmHg.

What about the “Week 8 subject-level IOP, mean (SD)” value [2] of the same substance?
The value was 15.3 (3.31) mmHg.

And the “Week 12 subject-level IOP change from BL, mean (SD)” value [3]?
The value was 0.0 (3.32) mmHg.

And the “Week 12 subject-level IOP, mean (SD)” value [3]?
The value was 15.5 (3.85) mmHg.

What about the “Week 4 IOP change from BL, mean (SD)” value (fellow eye (FE), week 4) of the same substance?
Its value is −0.3 (3.49) mmHg.

What about the “Week 4 IOP, mean (SD)” value (fellow eye (FE), week 4) of the same substance?
The value was 15.5 (4.85) mmHg.

And the “Week 8 IOP change from BL, mean (SD)” value (fellow eye (FE), week 8)?
The value was −0.3 (3.44) mmHg.

And the “Week 8 IOP, mean (SD)” value (fellow eye (FE), week 8)?
Its value is 15.5 (4.52) mmHg.

What about the “Week 12 IOP change from BL, mean (SD)” value (fellow eye (FE), week 12) of the same substance?
The value was −0.1 (3.62) mmHg.

What about the “Week 12 IOP, mean (SD)” value (fellow eye (FE), week 12) of the same substance?
Its value is 15.7 (5.19) mmHg.

And the “Week 4 IOP change from BL, mean (SD)” value (study eye (SE), week 4)?
Its value is −0.1 (2.74) mmHg.

What about the “Week 4 IOP, mean (SD)” value (study eye (SE), week 4) of the same substance?
Its value is 15.0 (3.50) mmHg.

What about the “Week 8 IOP change from BL, mean (SD)” value (study eye (SE), week 8) of the same substance?
Its value is 0.0 (3.25) mmHg.

What about the “Week 8 IOP, mean (SD)” value (study eye (SE), week 8) of the same substance?
The value was 15.0 (3.61) mmHg.

And the “Week 12 IOP change from BL, mean (SD)” value (study eye (SE), week 12)?
The value was 0.1 (3.83) mmHg.

And the “Week 12 IOP, mean (SD)” value (study eye (SE), week 12)?
The value was 15.3 (4.09) mmHg.

And the “mean change in IOP from baseline” value (study or fellow eye, all time points)?
The value was −0.3 to +0.1 mmHg.
